Laboratory results published in ChEMBL document CHEMBL5291721, “A preclinical secondary pharmacology resource illuminates target-adverse drug reaction associations of marketed drugs” (Nat Commun, 2023).

Columns and labels:
B2 bradykinin receptor = target: T1, B2 bradykinin receptor (Homo sapiens, UniProt P30411)
T1 sequence (P30411 whole entry): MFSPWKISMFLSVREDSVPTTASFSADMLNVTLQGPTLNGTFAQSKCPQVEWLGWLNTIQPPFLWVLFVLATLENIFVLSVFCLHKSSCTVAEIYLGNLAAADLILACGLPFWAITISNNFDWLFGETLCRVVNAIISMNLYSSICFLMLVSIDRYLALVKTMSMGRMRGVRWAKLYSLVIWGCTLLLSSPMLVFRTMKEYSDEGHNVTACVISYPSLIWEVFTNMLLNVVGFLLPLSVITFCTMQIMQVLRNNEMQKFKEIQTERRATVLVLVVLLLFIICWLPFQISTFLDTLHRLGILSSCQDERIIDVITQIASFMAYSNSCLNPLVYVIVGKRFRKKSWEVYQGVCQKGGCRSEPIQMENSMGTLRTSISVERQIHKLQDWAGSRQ

[1] = target: Gamma-aminobutyric acid receptor subunit alpha-1 (Rattus norvegicus, UniProt P62813)
Glucocorticoid receptor = target: T2, Glucocorticoid receptor (Homo sapiens, UniProt P04150)
T2 sequence (P04150 whole entry): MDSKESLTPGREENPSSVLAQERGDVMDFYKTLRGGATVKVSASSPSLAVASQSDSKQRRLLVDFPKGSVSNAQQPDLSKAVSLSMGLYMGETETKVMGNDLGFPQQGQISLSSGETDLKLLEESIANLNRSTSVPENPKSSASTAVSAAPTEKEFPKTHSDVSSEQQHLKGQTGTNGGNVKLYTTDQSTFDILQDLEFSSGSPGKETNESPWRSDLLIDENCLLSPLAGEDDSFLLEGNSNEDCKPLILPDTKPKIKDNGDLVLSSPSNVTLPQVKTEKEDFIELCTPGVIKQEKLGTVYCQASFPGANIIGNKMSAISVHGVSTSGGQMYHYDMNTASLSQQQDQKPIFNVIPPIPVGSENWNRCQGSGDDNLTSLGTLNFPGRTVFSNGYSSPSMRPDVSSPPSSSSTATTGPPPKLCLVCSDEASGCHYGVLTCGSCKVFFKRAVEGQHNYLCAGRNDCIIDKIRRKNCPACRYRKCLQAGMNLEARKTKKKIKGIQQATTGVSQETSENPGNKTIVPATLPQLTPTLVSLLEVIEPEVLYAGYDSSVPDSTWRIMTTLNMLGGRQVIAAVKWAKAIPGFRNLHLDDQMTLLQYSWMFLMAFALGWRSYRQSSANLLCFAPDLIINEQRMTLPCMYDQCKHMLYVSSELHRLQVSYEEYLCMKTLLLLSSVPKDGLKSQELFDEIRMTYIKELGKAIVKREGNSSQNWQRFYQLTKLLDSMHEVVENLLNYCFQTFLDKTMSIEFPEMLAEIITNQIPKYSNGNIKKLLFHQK

[2] = target: Beta-2 adrenergic receptor (Homo sapiens, UniProt P07550)
[3] = target: T3, Alpha-1A adrenergic receptor (Homo sapiens, UniProt P35348); format: functional, cell-based
T3 sequence (P35348 whole entry): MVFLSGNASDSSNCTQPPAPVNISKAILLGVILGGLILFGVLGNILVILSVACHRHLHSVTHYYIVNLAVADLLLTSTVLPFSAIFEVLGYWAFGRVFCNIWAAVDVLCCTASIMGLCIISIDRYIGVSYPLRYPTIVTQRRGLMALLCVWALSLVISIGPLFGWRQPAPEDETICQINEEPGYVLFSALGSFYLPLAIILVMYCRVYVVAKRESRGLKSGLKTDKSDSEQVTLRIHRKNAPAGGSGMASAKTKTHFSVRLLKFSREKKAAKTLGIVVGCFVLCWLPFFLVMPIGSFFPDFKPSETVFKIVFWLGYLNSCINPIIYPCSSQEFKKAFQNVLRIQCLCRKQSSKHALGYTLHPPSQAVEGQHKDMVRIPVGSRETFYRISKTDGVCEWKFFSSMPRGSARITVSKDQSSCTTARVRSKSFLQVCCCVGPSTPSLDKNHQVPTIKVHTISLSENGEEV

[4] = target: Prostaglandin G/H synthase 1 (Homo sapiens, UniProt P23219); format: functional
[5] = target: T4, Muscarinic acetylcholine receptor M2 (Homo sapiens, UniProt P08172)
T4 sequence (P08172 whole entry): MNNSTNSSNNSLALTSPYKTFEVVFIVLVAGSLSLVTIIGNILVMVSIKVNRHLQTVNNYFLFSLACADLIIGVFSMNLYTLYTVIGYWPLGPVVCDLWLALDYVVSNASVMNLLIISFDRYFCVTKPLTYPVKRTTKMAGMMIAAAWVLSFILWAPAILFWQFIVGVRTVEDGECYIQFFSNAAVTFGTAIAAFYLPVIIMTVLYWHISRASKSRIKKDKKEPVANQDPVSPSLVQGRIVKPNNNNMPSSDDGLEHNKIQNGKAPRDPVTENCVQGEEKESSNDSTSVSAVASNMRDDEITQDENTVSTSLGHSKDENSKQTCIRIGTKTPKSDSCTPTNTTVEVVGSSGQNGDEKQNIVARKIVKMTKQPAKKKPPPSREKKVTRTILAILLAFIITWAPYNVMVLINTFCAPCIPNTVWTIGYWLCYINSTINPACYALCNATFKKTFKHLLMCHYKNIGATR

Cannabinoid receptor 1 = Cannabinoid receptor 1 (Homo sapiens, UniProt P21554); format: functional, cell-based
[6] = target: T3, Alpha-1A adrenergic receptor; format: functional, cell-based; remark: listed apart in the source
[7] = target: 5-hydroxytryptamine receptor 2A (Homo sapiens, UniProt P28223); format: functional, cell-based
Further: assay procedure not described here.

5-hydroxytryptamine receptor 2A, sequence (P28223 whole entry): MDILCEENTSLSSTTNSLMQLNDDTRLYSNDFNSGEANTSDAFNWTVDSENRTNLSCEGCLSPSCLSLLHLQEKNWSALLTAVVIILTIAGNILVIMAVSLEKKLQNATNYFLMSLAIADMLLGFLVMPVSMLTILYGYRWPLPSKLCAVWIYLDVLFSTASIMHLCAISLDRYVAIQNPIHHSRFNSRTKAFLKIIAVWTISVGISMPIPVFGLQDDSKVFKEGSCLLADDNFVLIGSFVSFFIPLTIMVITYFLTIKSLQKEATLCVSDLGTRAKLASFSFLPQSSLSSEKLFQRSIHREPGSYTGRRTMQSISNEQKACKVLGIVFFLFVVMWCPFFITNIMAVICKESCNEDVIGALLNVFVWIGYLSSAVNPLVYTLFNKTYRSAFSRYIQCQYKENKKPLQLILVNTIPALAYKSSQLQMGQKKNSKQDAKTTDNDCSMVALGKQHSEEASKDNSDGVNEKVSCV
Cannabinoid receptor 1, sequence (P21554 whole entry): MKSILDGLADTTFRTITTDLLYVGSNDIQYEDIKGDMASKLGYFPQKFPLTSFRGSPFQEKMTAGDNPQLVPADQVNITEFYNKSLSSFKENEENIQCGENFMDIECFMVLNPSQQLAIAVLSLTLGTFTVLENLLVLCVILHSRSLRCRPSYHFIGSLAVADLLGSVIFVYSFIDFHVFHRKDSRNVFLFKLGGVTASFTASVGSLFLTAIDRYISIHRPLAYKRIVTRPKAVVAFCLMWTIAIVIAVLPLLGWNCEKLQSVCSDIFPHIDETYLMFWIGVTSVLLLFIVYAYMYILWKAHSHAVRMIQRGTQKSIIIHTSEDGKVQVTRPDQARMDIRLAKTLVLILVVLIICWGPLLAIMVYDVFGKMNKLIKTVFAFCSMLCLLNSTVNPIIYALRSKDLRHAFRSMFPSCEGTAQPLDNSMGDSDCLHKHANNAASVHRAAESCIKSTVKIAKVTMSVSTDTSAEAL
Gamma-aminobutyric acid receptor subunit alpha-1, sequence (P62813 whole entry): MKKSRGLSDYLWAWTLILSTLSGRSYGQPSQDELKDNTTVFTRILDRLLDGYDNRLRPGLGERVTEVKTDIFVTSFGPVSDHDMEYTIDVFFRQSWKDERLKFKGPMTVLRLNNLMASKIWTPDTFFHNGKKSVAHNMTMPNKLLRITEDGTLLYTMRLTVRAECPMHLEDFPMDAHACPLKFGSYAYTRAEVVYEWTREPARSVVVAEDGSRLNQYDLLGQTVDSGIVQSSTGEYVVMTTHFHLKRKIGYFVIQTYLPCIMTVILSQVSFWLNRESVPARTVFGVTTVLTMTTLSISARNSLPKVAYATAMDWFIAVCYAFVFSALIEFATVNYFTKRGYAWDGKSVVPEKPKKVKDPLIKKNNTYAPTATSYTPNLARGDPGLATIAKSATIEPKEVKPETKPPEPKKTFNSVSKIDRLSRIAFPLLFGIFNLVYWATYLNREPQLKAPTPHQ
Prostaglandin G/H synthase 1, sequence (P23219 whole entry): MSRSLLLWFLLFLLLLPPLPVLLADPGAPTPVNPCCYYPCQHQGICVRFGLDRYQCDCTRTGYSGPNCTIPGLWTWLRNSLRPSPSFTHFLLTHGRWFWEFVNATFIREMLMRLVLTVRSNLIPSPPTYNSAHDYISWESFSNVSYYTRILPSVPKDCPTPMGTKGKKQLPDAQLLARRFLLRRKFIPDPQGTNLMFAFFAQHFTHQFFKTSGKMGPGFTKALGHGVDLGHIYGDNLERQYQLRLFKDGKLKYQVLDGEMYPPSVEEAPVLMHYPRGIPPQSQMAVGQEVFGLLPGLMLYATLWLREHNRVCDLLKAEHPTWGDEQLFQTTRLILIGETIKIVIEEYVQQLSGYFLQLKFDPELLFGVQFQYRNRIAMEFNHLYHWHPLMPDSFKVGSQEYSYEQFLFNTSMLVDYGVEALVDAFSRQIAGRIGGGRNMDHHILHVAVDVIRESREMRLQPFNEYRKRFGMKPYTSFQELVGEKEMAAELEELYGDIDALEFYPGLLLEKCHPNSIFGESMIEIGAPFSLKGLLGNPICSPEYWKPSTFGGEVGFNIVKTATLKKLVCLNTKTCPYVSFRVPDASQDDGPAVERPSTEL
Beta-2 adrenergic receptor, sequence (P07550 whole entry): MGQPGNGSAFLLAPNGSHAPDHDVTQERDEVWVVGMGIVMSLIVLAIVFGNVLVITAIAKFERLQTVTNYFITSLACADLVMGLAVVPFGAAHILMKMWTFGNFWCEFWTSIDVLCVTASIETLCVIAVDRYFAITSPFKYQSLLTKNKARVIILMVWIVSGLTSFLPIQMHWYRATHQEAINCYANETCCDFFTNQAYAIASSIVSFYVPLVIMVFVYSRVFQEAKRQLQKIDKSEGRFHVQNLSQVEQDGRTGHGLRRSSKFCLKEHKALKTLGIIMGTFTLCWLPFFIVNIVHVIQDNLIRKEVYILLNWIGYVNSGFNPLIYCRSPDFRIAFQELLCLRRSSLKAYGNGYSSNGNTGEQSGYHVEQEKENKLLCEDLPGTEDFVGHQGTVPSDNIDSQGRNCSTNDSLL

Row | Structure (SMILES) | AC50 (B2 bradykinin receptor) | AC50 [1] | AC50 (Glucocorticoid receptor) | AC50 [2] | AC50 [3] | AC50 [4] | AC50 [5] | AC50 (Cannabinoid receptor 1) | AC50 [6] | AC50 [7]
1 | Clc1ccc2nsnc2c1NC1=NCCN1 [TIZANIDINE] | > 30 µM | > 10 µM | > 30 µM | > 10 µM | 0.0098 µM |  |  |  |  | 
2 | C[N+](C)(C)CCO [CHOLINE] |  |  |  |  |  | > 30 µM | > 30 µM |  |  | 
3 | CCOC(=O)[C@H](CCc1ccccc1)N[C@@H](C)C(=O)N1[C@H](C(=O)O)C[C@@H]2CCC[C@@H]21 | > 30 µM | > 10 µM | > 30 µM | > 10 µM | > 30 µM |  |  | > 30 µM | > 30 µM | 
4 | C[C@@H](O)[C@H]1C(=O)N2C(C(=O)O)=C(S[C@@H]3CN[C@H](C(=O)N(C)C)C3)[C@H](C)[C@H]12 [MEROPENEM] | > 10 µM | > 10 µM | > 10 µM | > 10 µM | > 300 µM |  |  | > 300 µM | > 300 µM | 
5 | CN(C)/N=N/c1[nH]cnc1C(N)=O [DACARBAZINE] | > 10 µM | > 10 µM | > 10 µM | > 10 µM |  |  |  |  |  | 
6 | C1CCC(C(CC2CCCCN2)C2CCCCC2)CC1 (stereo unspecified) [PERHEXILINE] |  |  |  |  | > 10 µM |  |  | > 30 µM | > 10 µM | 
7 | C[N+]1(C)CCC(OC(=O)C(O)(c2ccccc2)C2CCCC2)C1 (stereo unspecified) [GLYCOPYRRONIUM BROMIDE] | > 30 µM |  | > 30 µM |  |  |  |  |  |  | 
8 | C[C@H]1CNCCc2ccc(Cl)cc21 [LORCASERIN] |  |  |  |  | > 30 µM |  |  | 2.6 µM | > 30 µM | 
9 | CCc1oc2ccccc2c1C(=O)c1cc(I)c(O)c(I)c1 [BENZIODARONE] |  |  |  |  |  | 29.8 µM | > 30 µM |  |  | 
10 | CCCN1C[C@H](CSC)C[C@@H]2c3cccc4[nH]cc(c34)C[C@H]21 [PERGOLIDE] | > 30 µM | > 10 µM | > 30 µM | > 10 µM | 0.33 µM |  |  | > 10 µM |  | 
11 | C[C@]12CCC(=O)C=C1CC[C@@H]1[C@@H]2[C@@H](O)C[C@@]2(C)[C@H]1CC[C@]2(O)C(=O)CO [HYDROCORTISONE] | > 30 µM | > 10 µM |  | > 10 µM | > 30 µM |  |  | > 30 µM | > 30 µM | 
12 | COc1ccc(CC(C)(C)NC[C@H](O)c2cc(O)cc3c2OCC(=O)N3)cc1 [OLODATEROL] |  |  |  |  | > 30 µM |  |  | > 30 µM | 0.055 µM | > 30 µM
13 | CN(C)CCn1nnnc1SCC1=C(C(=O)O)N2C(=O)[C@@H](NC(=O)Cc3csc(N)n3)[C@H]2SC1 [CEFOTIAM] |  |  |  |  |  | > 30 µM | > 30 µM |  |  | 
14 | c1ccc([C@H]2CN3CCSC3=N2)cc1 [LEVAMISOLE] |  | > 30 µM |  | > 30 µM | > 30 µM |  |  | > 30 µM | > 30 µM | 
15 | O=C(O[C@H]1C[C@H]2CC[C@@H](C1)[N+]21CCCC1)C(O)(c1ccccc1)c1ccccc1 [TROSPIUM] | > 30 µM | > 30 µM |  | > 30 µM | > 30 µM |  |  |  | > 30 µM | > 30 µM
16 | CCCSc1ccc2nc(NC(=O)OC)[nH]c2c1 [ALBENDAZOLE] | > 10 µM | > 10 µM | > 10 µM | > 30 µM |  |  |  |  |  | 

Row | Structure (SMILES) | AC50 (B2 bradykinin receptor) | AC50 [1] | AC50 (Glucocorticoid receptor) | AC50 [2] | AC50 [3] | AC50 [4] | AC50 [5] | AC50 (Cannabinoid receptor 1) | AC50 [6] | AC50 [7]
17 | c1cnc(N2CCN(Cc3ccc4c(c3)OCO4)CC2)nc1 [PIRIBEDIL] |  |  |  |  | > 30 µM |  |  | > 30 µM | 23 µM | > 30 µM
18 | CC1=C(C(=O)O)N2C(=O)[C@@H](NC(=O)[C@H](N)c3ccccc3)[C@H]2SC1 [CEPHALEXIN ANHYDROUS] | > 30 µM | > 10 µM | > 30 µM | > 10 µM | > 30 µM |  |  | > 30 µM | > 30 µM | 
19 | Clc1ccc(C(c2ccccc2Cl)C(Cl)Cl)cc1 (stereo unspecified) [MITOTANE] | > 10 µM | > 10 µM | 1.4 µM | > 10 µM |  |  |  |  |  | 
20 | N[C@@H]1[C@H]2CN(c3nc4c(cc3F)c(=O)c(C(=O)O)cn4-c3ccc(F)cc3F)C[C@@H]12 [TROVAFLOXACIN] |  |  |  |  | > 30 µM |  |  | > 30 µM | > 30 µM | 
21 | CN(C)CCC=C1c2ccccc2C(C)(C)c2ccccc21 |  |  |  |  | > 30 µM |  |  | > 30 µM | 0.63 µM | 4.5 µM
22 | CC1(C)NC(=O)N(c2ccc([N+](=O)[O-])c(C(F)(F)F)c2)C1=O [NILUTAMIDE] | > 30 µM | > 30 µM |  | > 30 µM |  | > 30 µM | > 30 µM |  |  | > 30 µM
23 | CC[C@H]1OC(=O)[C@H](C)[C@@H](O[C@H]2C[C@@](C)(OC)[C@@H](O)[C@H](C)O2)[C@H](C)[C@@H](O[C@@H]2O[C@H](C)C[C@H](N(C)C)[C@H]2O)[C@](C)(O)C[C@@H](C)CN(C)[C@H](C)[C@@H](O)[C@]1(C)O [AZITHROMYCIN] | > 30 µM | > 30 µM |  |  | > 30 µM | > 30 µM | > 30 µM | > 30 µM | > 30 µM | 
24 | CNC1Cc2ccccc2N(C)c2ccccc21 (stereo unspecified) [METAPRAMINE] |  |  |  |  | > 30 µM |  |  | > 30 µM | 3.4 µM | > 30 µM
25 | O=P1(NCCCl)OCCCN1CCCl (stereo unspecified) [IFOSFAMIDE] | > 30 µM | > 30 µM | > 30 µM | > 30 µM |  |  |  |  |  | 
26 | CCC(=O)NCC[C@@H]1CCc2ccc3c(c21)CCO3 [RAMELTEON] |  |  |  |  |  | > 30 µM | > 30 µM |  |  | 
27 | Cc1cc(C#N)cc(C)c1Oc1nc(Nc2ccc(C#N)cc2)nc(N)c1Br [ETRAVIRINE] |  |  |  |  |  | 14.4 µM | 22.6 µM |  |  | 
28 | CCC(C)n1ncn(-c2ccc(N3CCN(c4ccc(OCC5COC(Cn6cncn6)(c6ccc(Cl)cc6Cl)O5)cc4)CC3)cc2)c1=O (stereo unspecified) [ITRACONAZOLE] | > 30 µM | > 30 µM |  | > 30 µM | > 30 µM |  |  | > 30 µM | > 30 µM | 
29 | N[C@@H](C(=O)N[C@@H]1C(=O)N2C(C(=O)O)=C(Cl)CC[C@H]12)c1ccccc1 [LORACARBEF ANHYDROUS] |  |  |  |  |  | > 30 µM | > 30 µM |  |  | 
30 | CN(C)CCC(c1ccc(Cl)cc1)c1ccccn1 (stereo unspecified) [CHLORPHENIRAMINE] | > 30 µM | > 10 µM | > 30 µM | > 10 µM | > 30 µM |  |  | > 30 µM | > 30 µM | 
31 | Cc1ccc(-c2cc(C(F)(F)F)nn2-c2ccc(S(N)(=O)=O)cc2)cc1 [CELECOXIB] | > 30 µM | > 10 µM | > 30 µM | > 10 µM | > 30 µM |  |  | > 30 µM |  | 
